Source: ChEMBL document CHEMBL1201862, “PubChem BioAssay data set” (2004)
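Five compound concentrations were applied to cells in 96-well plates for 48 hours; endpoints were derived by simple linear interpolation of the resulting dose-response curve. Abbreviation: GI50, concentration required for 50% inhibition of growth.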 Calls of active or inactive are those of the source. Cut-off read from the data, not from the text of the source: active = GI50 up to about 1.1 µM and inactive = higher.

How the values were obtained:
Test in all cases: NCI tumour cell line growth inhibition, 48 h
[1] = system: OVCAR-5
[2] = system: T47D
[3] = system: CAKI-1
[4] = system: NCI/ADR-RES
[5] = system: A549
[6] = system: EKVX
[7] = system: M14
[8] = system: HCT-15
[9] = system: SK-MEL-28
[10] = system: OVCAR-4
[11] = system: MDA-MB-231
[12] = system: COLO 205
[13] = system: SK-MEL-2
[14] = system: SN12C
[15] = system: PC-3
[16] = system: UACC-62
[17] = system: MDA-MB-435
[18] = system: UACC-257
[19] = system: SF-268
[20] = system: HOP-62
[21] = system: UO-31
[22] = system: TK-10
[23] = system: NCI-H23
[24] = system: SW-620
[25] = system: Hs-578T
[26] = system: OVCAR-8
[27] = system: LOX IMVI
[28] = system: ACHN
[29] = system: SK-OV-3
[30] = system: MDA-N
[31] = system: 786-0
[32] = system: SR
[33] = system: MOLT-4
[34] = system: HCT-116
[35] = system: Malme-3M
[36] = system: IGROV-1
[37] = system: KM12
[38] = system: K562
[39] = system: SNB-19
[40] = system: SNB-75
[41] = system: U-251
[42] = system: SF-539
[43] = system: HCC 2998
[44] = system: RPMI-8226
[45] = system: OVCAR-3
[46] = system: BT-549
[47] = system: HT-29
[48] = system: DU-145
[49] = system: MCF7
[50] = system: SK-MEL-5
[51] = system: NCI-H226
[52] = system: SF-295
[53] = system: NCI-H460
[54] = system: NCI-H522
[55] = system: RXF 393
[56] = system: CCRF-CEM
[57] = system: HL-60
[58] = system: A498
[59] = system: HOP-92

C[n+]1c2ccccc2c(C(=O)Nc2ccc(S(=O)(=O)Nc3ccnn3-c3ccccc3)cc2)c2ccccc21
GI50 [1]: > 100 µM (inactive) | GI50 [2]: > 100 µM (inactive) | GI50 [3]: > 100 µM (inactive) | GI50 [4]: 20.7 µM (inactive) | GI50 [5]: > 100 µM (inactive) | GI50 [6]: > 100 µM (inactive) | GI50 [7]: > 100 µM (inactive) | GI50 [8]: > 100 µM | GI50 [9]: > 100 µM (inactive) | GI50 [10]: > 100 µM (inactive) | GI50 [11]: > 100 µM (inactive) | GI50 [12]: > 100 µM (inactive) | GI50 [13]: > 100 µM (inactive) | GI50 [14]: > 100 µM (inactive) | GI50 [15]: > 100 µM (inactive) | GI50 [16]: > 100 µM (inactive) | GI50 [17]: > 100 µM (inactive) | GI50 [18]: > 100 µM (inactive) | GI50 [19]: > 100 µM (inactive) | GI50 [20]: > 100 µM (inactive) | GI50 [21]: > 100 µM (inactive) | GI50 [22]: > 100 µM (inactive) | GI50 [23]: > 100 µM (inactive) | GI50 [24]: > 100 µM (inactive) | GI50 [25]: > 100 µM (inactive) | GI50 [26]: > 100 µM (inactive) | GI50 [27]: > 100 µM (inactive) | GI50 [28]: > 100 µM (inactive) | GI50 [29]: > 100 µM (inactive) | GI50 [30]: > 100 µM (inactive) | GI50 [31]: > 100 µM (inactive) | GI50 [32]: > 100 µM (inactive) | GI50 [33]: > 100 µM (inactive) | GI50 [34]: > 100 µM (inactive) | GI50 [35]: > 100 µM (inactive) | GI50 [36]: > 100 µM (inactive) | GI50 [37]: > 100 µM (inactive) | GI50 [38]: > 100 µM (inactive) | GI50 [39]: > 100 µM (inactive) | GI50 [40]: > 100 µM (inactive) | GI50 [41]: > 100 µM (inactive) | GI50 [42]: > 100 µM (inactive) | GI50 [43]: > 100 µM (inactive) | GI50 [44]: > 100 µM (inactive) | GI50 [45]: > 100 µM (inactive) | GI50 [46]: > 100 µM (inactive) | GI50 [47]: > 100 µM (inactive) | GI50 [48]: > 100 µM (inactive) | GI50 [49]: > 100 µM (inactive) | GI50 [50]: 69.2 µM (inactive) | GI50 [51]: > 100 µM (inactive) | GI50 [52]: > 100 µM (inactive) | GI50 [53]: > 100 µM (inactive)

c1ccc(-c2cc(-c3ccccc3)nc(-c3ccncc3)c2)cc1
GI50 [1]: > 100 µM (inactive) | GI50 [2]: > 100 µM (inactive) | GI50 [3]: > 100 µM (inactive) | GI50 [4]: > 100 µM (inactive) | GI50 [5]: > 100 µM (inactive) | GI50 [6]: > 100 µM (inactive) | GI50 [54]: > 100 µM (inactive) | GI50 [7]: 42.4 µM (inactive) | GI50 [8]: > 100 µM | GI50 [9]: > 100 µM (inactive) | GI50 [10]: 16.4 µM (inactive) | GI50 [11]: 97.5 µM (inactive) | GI50 [12]: > 100 µM (inactive) | GI50 [13]: > 100 µM (inactive) | GI50 [14]: > 100 µM (inactive) | GI50 [15]: > 100 µM (inactive) | GI50 [16]: > 100 µM (inactive) | GI50 [17]: > 100 µM (inactive) | GI50 [18]: 99.8 µM (inactive) | GI50 [19]: > 100 µM (inactive) | GI50 [20]: 16.1 µM (inactive) | GI50 [21]: > 100 µM (inactive) | GI50 [22]: 40.4 µM (inactive) | GI50 [23]: 91.4 µM (inactive) | GI50 [24]: > 100 µM (inactive) | GI50 [25]: > 100 µM (inactive) | GI50 [26]: > 100 µM (inactive) | GI50 [27]: > 100 µM (inactive) | GI50 [28]: 70.8 µM (inactive) | GI50 [29]: > 100 µM (inactive) | GI50 [30]: > 100 µM (inactive) | GI50 [31]: 18 µM (inactive) | GI50 [32]: > 100 µM (inactive) | GI50 [33]: > 100 µM (inactive) | GI50 [34]: 48.8 µM (inactive) | GI50 [35]: > 100 µM (inactive) | GI50 [36]: 25.9 µM (inactive) | GI50 [37]: 96.4 µM (inactive) | GI50 [38]: > 100 µM (inactive) | GI50 [39]: 53.8 µM (inactive) | GI50 [41]: 37.6 µM (inactive) | GI50 [55]: 44.6 µM (inactive) | GI50 [43]: > 100 µM (inactive) | GI50 [44]: > 100 µM (inactive) | GI50 [56]: > 100 µM (inactive) | GI50 [45]: > 100 µM (inactive) | GI50 [46]: > 100 µM (inactive) | GI50 [48]: > 100 µM (inactive) | GI50 [57]: > 100 µM (inactive) | GI50 [49]: > 100 µM (inactive) | GI50 [50]: 57.1 µM (inactive) | GI50 [51]: 58.5 µM (inactive) | GI50 [52]: 57.1 µM (inactive)

COc1cc(OC)c(/C=C/c2cnc3ccccc3n2)c(OC)c1
GI50 [1]: > 10 µM (inactive) | GI50 [2]: > 10 µM (inactive) | GI50 [3]: > 10 µM (inactive) | GI50 [4]: > 10 µM (inactive) | GI50 [5]: > 10 µM (inactive) | GI50 [6]: > 10 µM (inactive) | GI50 [54]: > 10 µM (inactive) | GI50 [7]: > 10 µM (inactive) | GI50 [8]: > 10 µM | GI50 [9]: > 10 µM (inactive) | GI50 [10]: > 10 µM (inactive) | GI50 [11]: > 10 µM (inactive) | GI50 [12]: > 10 µM (inactive) | GI50 [13]: > 10 µM (inactive) | GI50 [14]: > 10 µM (inactive) | GI50 [15]: > 10 µM (inactive) | GI50 [16]: > 10 µM (inactive) | GI50 [17]: > 10 µM (inactive) | GI50 [18]: > 10 µM (inactive) | GI50 [19]: > 10 µM (inactive) | GI50 [20]: > 10 µM (inactive) | GI50 [21]: 0.0561 µM (active) | GI50 [22]: > 10 µM (inactive) | GI50 [23]: > 10 µM (inactive) | GI50 [24]: > 10 µM (inactive) | GI50 [25]: > 10 µM (inactive) | GI50 [26]: > 10 µM (inactive) | GI50 [27]: > 10 µM (inactive) | GI50 [28]: > 10 µM (inactive) | GI50 [29]: > 10 µM (inactive) | GI50 [30]: > 10 µM (inactive) | GI50 [31]: > 10 µM (inactive) | GI50 [34]: > 10 µM (inactive) | GI50 [35]: > 10 µM (inactive) | GI50 [36]: > 10 µM (inactive) | GI50 [37]: > 10 µM (inactive) | GI50 [38]: > 10 µM (inactive) | GI50 [39]: > 10 µM (inactive) | GI50 [40]: > 10 µM (inactive) | GI50 [41]: > 10 µM (inactive) | GI50 [42]: > 10 µM (inactive) | GI50 [55]: > 10 µM (inactive) | GI50 [43]: > 10 µM (inactive) | GI50 [58]: > 10 µM (inactive) | GI50 [44]: > 10 µM (inactive) | GI50 [56]: > 10 µM (inactive) | GI50 [45]: > 10 µM (inactive) | GI50 [46]: > 10 µM (inactive) | GI50 [47]: > 10 µM (inactive) | GI50 [59]: > 10 µM (inactive) | GI50 [48]: > 10 µM (inactive) | GI50 [57]: > 10 µM (inactive) | GI50 [49]: > 10 µM (inactive) | GI50 [50]: > 10 µM (inactive) | GI50 [51]: > 10 µM (inactive) | GI50 [52]: > 10 µM (inactive) | GI50 [53]: > 10 µM (inactive)
